According to PMC11845477, “Exploring the principles behind antibiotics with limited resistance” (Nature Communications, 2025):
Where a SMILES comes first, the peptide text is derived from it. Bridges are numbered along the chain shown (N, C = ends). [ ]: non-standard residue; d: D form. The star is where a group is joined. X1 = NC[C@@H](CC(=O)*)c1cccc(Cl)c1; X2 = CC[C@H](C)CCCCC(=O)*; Dab = NCC[C@H](N)C(=O)O; Dap = NC[C@H](N)C(=O)O

How the values were obtained:
[1] = tested on: A. baumannii ATCC 17978 (SEN) and A. baumannii ATCC BAA-1605 (MDR); assay: microbe, parasite or virus in culture; format: cell-based, Acinetobacter baumannii; conditions: for MIC: across three biological replicates
Protocol: This study focused on multiple bacterial strains, as follows. For the FoR and ALE experiments, 2 strains per species were chosen: E. coli ATCC 25922, K. pneumoniae ATCC 10031, A. baumannii ATCC 17978, and P. aeruginosa ATCC BAA-3107 as sensitive (SEN) strains, and E. coli NCTC13846, K. pneumoniae ATCC 700603, A. baumannii ATCC BAA-1605 and P. aeruginosa LESB58 as multi-drug resistant (MDR) strains. Functional metagenomic screens were performed with E. coli ATCC 25922 and K. pneumoniae ATCC 10031 strains. To determine the dose-kill properties of the different antibiotics, an E. coli strain (ATCC 25922) expressing a yellow fluorescent protein (pZS2R, YFP, CHL^R) and a red fluorescent protein (pZS2R, mCherry, CHL^R) was used.
Unless otherwise indicated, cation-adjusted Mueller-Hinton Broth 2 (MHB, Millipore) medium was used throughout the study, except for SCH79797 (SCH).
A robotic liquid handling system was used to automatically prepare a 11 to 16-step serial dilution in 384-well microtiter plates (Greiner). A final concentration of 5 × 10^5 bacterial cells per mL were inoculated into each well containing 60 µL MHB medium. Bacterial cultures were incubated at 37 °C with continuous shaking (Infors shaker, 900 rpm with 3 mm throw) for 18 hours (2 replicates from each). Cell growth was monitored by measuring the optical density (OD600 values, using Biotek Synergy microplate reader). MIC was defined as the antibiotic concentration of complete growth inhibition (i.e., OD600 < 0.05). Relative MIC was calculated as follows:1 relativeMIC=MICevolved/MICancestor

[2] = tested on: E. coli BW25113: pUCacrAB; assay: AcrAB-TolC efflux overexpression screen, relative MIC; format: cell-based, Escherichia coli; conditions: pUCacrAB vs empty pUC118 control
Protocol: Fig. 6 The impact of AcrAB-TolC activity on antibiotic susceptibility. E. coli strains with AcrAB-TolC depletion (BW25113-ΔacrB) and overexpression (BW25113: pUCacrAB) were treated with various antibiotics, and the level of resistance was determined as minimum inhibitory concentration (MIC) relative to a wild-type strain, presented on a logarithmic scale (log2). Each bar represents the mean resistance level (susceptibility, i.e., level of resistance < 0; and resistance, i.e., level of resistance > 0) to antibiotics induced by acrAB overexpression (blue bars; E. coli with a multicopy plasmid of the acrAB genes (pUCacrAB)) and acrB deletion (red bars; mutant E. coli with acrB gene deletion (ΔacrB)) compared to the wild-type. Data are presented as mean values of 3 biological replicates ± SD. […] Detailed information on antibiotic and bacterial strain abbreviations is provided in Supplementary Data 1. Source data are provided as a Source Data file. For information on mode of action groups, refer to Table 1.
For the efflux deficiency screen, the ΔacrB mutant of E. coli K12 BW25113[86] and its equivalent wild-type control strain with intact gene were utilized. In contrast, BW25113 carrying a multicopy acrAB plasmid (pUCacrAB)[87] and its control strain harboring an empty pUC118 plasmid were used to overexpress the acrAB efflux system. According to established protocols via P1 transduction, the suitable acrB deletion mutant (ΔacrB BW25113) was created, while the pUCacrAB plasmid was kindly provided by Kunihiko Nishino and Akihito Yamaguchi (Osaka University, Osaka, Japan). In a prior study, both strains were employed. Since the copy number of the plasmid carrying the efflux pump is controlled by native promoters, external induction is unnecessary.
Antibiotic susceptibilities of these strains were evaluated using a modified version of the standard broth dilution method. In 96-well microtiter plates containing fresh MHB medium, or supplemented MS medium in case of SCH79797, ten-step serial dilutions of an antibiotic from a stock solution were made (2 wells per antibiotic concentration per strain). The two wells contained only supplemented media without any antibiotics […]. Strains were incubated overnight at 37 °C with continuous agitation. Additionally, plasmid containing strains were grown in the presence of 100 µg/mL ampicillin. The culture was diluted to yield a cell suspension with 5 ×10^5 cells/mL and then inoculated into the wells of the microtiter plate. To determine the medium’s background OD value, the first column of the 96-well plate contained solely MHB without inoculum. Prior to the measurement, the plates were incubated at 37 °C with continuous shaking at 900 rpm with 3 mm throw. OD600 values were determined in a microplate reader after 18 hours of incubation (Biotek Synergy 2). The minimum inhibitory concentration (MIC) was determined as the lowest concentration of antibiotic at which the OD600 values were less than 0.05 after subtracting the background value. The log2 of the relative MIC was computed using the following equation:2 log2relativeMICpUCacrAB=MICpUCacrAB/MICpUC118 3 log2relativeMICΔacrB=MICΔacrB/MICwt

[3] = Acinetobacter baumannii ATCC 17978 (AB-SEN), ancestor strain
[4] = Acinetobacter baumannii ATCC 17978 (AB-SEN), ancestor strain, sheet fig 2a
[5] = Acinetobacter baumannii, Acinetobacter baumannii ATCC 17978 (AB-SEN)
[6] = Acinetobacter baumannii, Acinetobacter baumannii ATCC BAA-1605 (AB-MDR)
[7] = Acinetobacter baumannii ATCC BAA 1605 (AB-MDR), ancestor strain, sheet fig 2a
[8] = AB-SEN, Acinetobacter baumannii ATCC 17978, ancestor strain
[9] = Acinetobacter baumannii ATCC 17978 (AB-SEN)
[10] = Acinetobacter baumannii ATCC BAA-1605 (AB-MDR)
[11] = ancestor AB-SEN (Acinetobacter baumannii ATCC 17978)

Compound	MIC of ancestor [1, 4] [µg/mL]	MIC [1, 5] [µg/mL]	MIC [1, 6] [µg/mL]	Relative MIC (log2) ([2]; replicate 1)	Relative MIC (log2) ([2]; replicate 2)	Relative MIC (log2) ([2]; replicate 3)	MIC [1, 9] [µg/mL]	MIC [1, 10] [µg/mL]	other results
CN[C@@H]1[C@@H](O[C@H]2O[C@H](CO)[C@@H](N)[C@H](O)[C@H]2O)OC2C[C@@H](N)[C@@H](O[C@H]3[C@H](O)[C@@H](O)[C@H](N)C[C@@H]3N)OC2[C@@H]1O (stereo partly shown) [Apramycin]	4	4	8	0	0	0			MIC of ancestor [1, 3]: 4 µg/mL
Nc1nc(-n2cc(C(=O)O)c(=O)c3cc(F)c(N4CC(O)C4)c(Cl)c32)c(F)cc1F [Delafloxacin]	0.0625	0.0625	8	2	2	2			MIC of ancestor [1, 3]: 0.0625 µg/mL
C[C@H]1c2cccc(O)c2C(=O)C2=C(O)[C@]3(O)C(=O)C(C(N)=O)=C(O)[C@@H](N(C)C)[C@@H]3[C@@H](O)[C@@H]21 [Doxycycline]	0.25	0.25	8	0	0	0			MIC of ancestor [1, 3]: 0.25 µg/mL
CN(C)[C@@H]1C(O)=C(C(N)=O)C(=O)[C@@]2(O)C(O)=C3C(=O)c4c(O)c(NC(=O)CN5CCCC5)cc(F)c4C[C@H]3C[C@@H]12 [Eravacycline]	0.0625	0.0625	2	0	0	0			MIC of ancestor [1, 3]: 0.0625 µg/mL; MIC of ancestor ([1]; Acinetobacter baumannii ATCC BAA 1605 (AB-MDR), ancestor strain): 2 µg/mL; MIC of ancestor [1, 7]: 2 µg/mL
CNC(C)C1CCC(N)C(OC2C(N)CC(N)C(OC3OCC(C)(O)C(NC)C3O)C2O)O1 (stereo not shown) [Gentamicin]	0.5	0.5	> 32	0	0	0			MIC of ancestor [1, 8]: 0.5 µg/mL
O=c1ccc2ncc(=O)n3c2n1C[C@H]3CN1CCC(NCc2cc3c(cn2)OCCC3)CC1 [Gepotidacin]	2	2	32	2	2	2			MIC of ancestor [1, 8]: 2 µg/mL
C[C@@H](O)[C@H]1C(=O)N2C(C(=O)O)=C(S[C@@H]3CN[C@H](C(=O)N(C)C)C3)[C@H](C)[C@H]12 [Meropenem]	1	1	> 32						MIC of ancestor [1, 8]: 1 µg/mL
COc1c(N2C[C@@H]3CCCN[C@@H]3C2)c(F)cc2c(=O)c(C(=O)O)cn(C3CC3)c12 [Moxifloxacin]			32						
CN(C)c1cc(CNCC(C)(C)C)c(O)c2c1C[C@H]1C[C@H]3[C@H](N(C)C)C(O)=C(C(N)=O)C(=O)[C@@]3(O)C(O)=C1C2=O [Omadacycline]	0.5	0.5	16	0.585	0.585	0.585			MIC of ancestor ([1]; Acinetobacter baumannii ATCC 17978 (AB-SEN), ancestor): 0.5 µg/mL
CC[C@H](C)CCCCC(=O)N[C@@H](CCN)C(=O)N[C@H](C(=O)N[C@@H](CCN)C(=O)N[C@H]1CCNC(=O)[C@H]([C@@H](C)O)NC(=O)[C@H](CCN)NC(=O)[C@H](CCN)NC(=O)[C@H](CC(C)C)NC(=O)[C@@H](Cc2ccccc2)NC(=O)[C@H](CCN)NC1=O)[C@@H](C)O [Polymyxin B] (X2-[Dab]T[Dab][Dab][Dab][dF]L[Dab][Dab]T; lactam 4-C (inferred); N-terminus assumed)				0	0	0	1	1	
CC(C)c1ccc(Cn2ccc3c4c(N)nc(NC5CC5)nc4ccc32)cc1 [SCH79797]	4			1	1	1	4	4	MIC of ancestor [1, 7]: 4 µg/mL; MIC of ancestor ([1]; ancestor AB-MDR (Acinetobacter baumannii ATCC BAA 1605)): 4 µg/mL; MIC of ancestor [1, 11]: 4 µg/mL
CC(C)C[C@@H]1NC(=O)[C@@H](Cc2ccccc2)NC(=O)[C@H](CCN)NC(=O)[C@@H](NC(=O)[C@H](CN)NC(=O)[C@@H](NC(=O)C[C@H](CN)c2cccc(Cl)c2)[C@@H](C)O)CCNC(=O)[C@H]([C@@H](C)O)NC(=O)[C@H](CCN)NC(=O)[C@H](CCN)NC1=O [SPR206] (X1-T[Dap][Dab][Dab][dF]L[Dab][Dab]T; lactam 3-C (inferred); N-terminus assumed)	0.125			0	0	0	0.125	0.125	MIC of ancestor ([1]; A. baumannii ATCC 17978 (AB-SEN), ancestor strain): 0.125 µg/mL; MIC of ancestor ([1]; A. baumannii ATCC BAA 1605 (AB-MDR), ancestor strain): 0.125 µg/mL; MIC of ancestor [1, 7]: 0.125 µg/mL; MIC of ancestor [1, 11]: 0.125 µg/mL
C[C@@H](O)[C@H]1C(=O)N2C(C(=O)O)=C(S[C@H]3CC[S@@+]([O-])C3)S[C@H]12 [Sulopenem]	1			0	0	0	1	32	MIC of ancestor [1, 11]: 1 µg/mL
C[C@@H]1CN2c3c(cc4c(N5C(=O)OC[C@@H]5C)noc4c3F)CC3(C(=O)NC(=O)NC3=O)[C@H]2[C@H](C)O1 [Zoliflodacin]		8	16	2	2	2			
POL7306							1	1	
Tridecaptin M152-P3							8	8	
polymyxin-B	1								MIC of ancestor ([1]; Acinetobacter baumannii ATCC BAA 1605 (AB-MDR), ancestor): 1 µg/mL; MIC of ancestor [1, 7]: 1 µg/mL; MIC of ancestor [1, 11]: 1 µg/mL
